We go through one compound from US5130327A, “Indole derivatives” (Consejo Superior de Investigaciones Cientificas, priority 1989, dated 1992).

Test [1] in a line: Antagonism of tetrabenazine effects (ptosis and catalepsy). Format: in vivo. The settings on record: ptosis and catalepsy at 60 and 120 minutes after administration; read-out: ED50, antagonism of effects induced by tetrabenazine. An excerpt: The action mechanism was studied in acute and chronic treatments on the interaction response with clonidine, salbutamol (Richard, J. Intern. J. Neuroscience, 9:17-19, 1979) and tetrabenazine (Pletscher, A.: An. N.Y. Aca. Sci. 80:1039-1045, 1959), and the response to the potentiation with L-dopa, L-tryptophan, tryptamine (Jalfre, M. et al., Arch. Int. Pharmacodyn, 159:194-221, 1982) and β-phenylethylamine (Ortmann, et al, Psychopharmacol. 84:22-27, 1984).

In a further test the target is T1, Bovine Brain MAO A (Bos taurus, UniProt P21398).
T1 construct: in vitro activity of MAO from bovine brain mitochondria; from tissue; host or cells: bovine brain mitochondria
T1 sequence (P21398 1-527): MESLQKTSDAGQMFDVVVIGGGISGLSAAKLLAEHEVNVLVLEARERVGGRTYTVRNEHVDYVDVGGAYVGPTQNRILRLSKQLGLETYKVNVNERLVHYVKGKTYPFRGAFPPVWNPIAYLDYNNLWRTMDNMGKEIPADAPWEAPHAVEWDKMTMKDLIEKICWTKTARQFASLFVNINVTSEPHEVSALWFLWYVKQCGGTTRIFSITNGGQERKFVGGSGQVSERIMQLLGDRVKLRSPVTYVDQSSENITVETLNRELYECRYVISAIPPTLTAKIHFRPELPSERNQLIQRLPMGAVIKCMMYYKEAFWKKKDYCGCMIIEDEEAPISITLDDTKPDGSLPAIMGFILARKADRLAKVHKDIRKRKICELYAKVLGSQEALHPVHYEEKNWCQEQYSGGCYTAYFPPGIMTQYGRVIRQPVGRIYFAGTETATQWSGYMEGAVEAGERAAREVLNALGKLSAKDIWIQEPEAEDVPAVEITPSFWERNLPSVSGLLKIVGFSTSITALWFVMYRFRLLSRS
The experiment in a line: In vitro inhibition of MAO from bovine brain mitochondria, tyramine as substrate (form A). Format: biochemical. Particulars: pI50 = -log [I50], molar. From the text: (§1) The following table illustrates the structure of particular compounds of the invention (1). It also gives specific pI50 values where pI50 =-log [I50 ] where [I50 ] is the molar concentration of test compound which inhibits 50% of the in vitro activity of MAO from bovine brain mitochondria using tyramine as substrate.

Another test has as its system rat cerebral MAO A. Put plainly: Ex vivo inhibition of rat cerebral MAO A after single dosing. Format: in vivo. On the procedure: (§2) 2. "Ex vivo inhibition" of rat cerebral MAO A and B after single dosing.
This gives the degree of inhibition in vivo of both forms of the enzyme and variation of this inhibition with time after treatment with a single dose. […] Animals were sacrificed by decapitation 24 h. and 7 days after treatment and brains were removed and homogenized. Enzymatic activities determined in treated animals, were compared with the activities in control animals (100%).

The next test concerns the target T2, Bovine Brain MAO B (Bos taurus, UniProt P56560).
T2 construct: in vitro activity of MAO from bovine brain mitochondria; from tissue; host or cells: bovine brain mitochondria
T2 sequence (P56560 1-520): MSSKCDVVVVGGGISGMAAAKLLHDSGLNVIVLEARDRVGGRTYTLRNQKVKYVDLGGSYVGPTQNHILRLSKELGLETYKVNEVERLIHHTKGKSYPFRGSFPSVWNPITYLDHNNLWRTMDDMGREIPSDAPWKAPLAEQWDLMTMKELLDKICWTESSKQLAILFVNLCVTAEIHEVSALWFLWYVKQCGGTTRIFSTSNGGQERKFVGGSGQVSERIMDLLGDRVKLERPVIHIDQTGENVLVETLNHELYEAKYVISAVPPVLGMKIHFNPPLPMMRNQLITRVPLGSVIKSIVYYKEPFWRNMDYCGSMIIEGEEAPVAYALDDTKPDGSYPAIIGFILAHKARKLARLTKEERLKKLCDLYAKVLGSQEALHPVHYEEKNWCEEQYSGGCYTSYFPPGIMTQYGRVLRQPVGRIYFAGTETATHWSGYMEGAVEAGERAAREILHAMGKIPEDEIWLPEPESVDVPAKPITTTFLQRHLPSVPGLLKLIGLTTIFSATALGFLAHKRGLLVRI
The experiment in a line: In vitro inhibition of MAO from bovine brain mitochondria, tyramine as substrate (form B). In kind it is biochemical. The settings on record: pI50 = -log [I50], molar; bovine brain mitochondria, tyramine as substrate.
Source text: as §1

Another test concerns rat cerebral MAO A and B. The experiment in a line: MAO inhibitory activity at the biochemical level (reversibility and selectivity).
Source text: To determine MAO inhibitory activity at the biochemical level the following tests are used:
1. "In vitro inhibition" of rat cerebral MAO A and B giving I50 values for the two forms of the enzyme. Male Wistar rats (200 g) were used. Brains were obtained by decapitation and were homogenized. As substrates of the enzymes ^14 C-5-hydroxytryptamine oxalate 54 mCi/mmol and ^14 C-β-phenylethylamine were used. The residual enzymatic activities were referred to the activities in absence of MAO inhibitor (100%).
as §2
This gives the degree of inhibition in vivo of both forms of the enzyme and variation of this inhibition with time after treatment with a single dose. The compounds were administered intraperitoneally to male Wistar rats (175 g.) at a dose of 5 mg/kg in 1 ml/kg (H2 O). Animals were sacrificed by decapitation 24 h. and 7 days after treatment and brains were removed and homogenized. Enzymatic activities determined in treated animals, were compared with the activities in control animals (100%).
3. "Ex vivo" inhibition of rat cerebral MAO A and B after repeated dosing.
Male Wistar rats (175 g) were used.
The compounds were administered once daily intraperitonally for 7 days at a dose of 0.5 and 1 mg/kg in 1 ml/kg […]. […]

As to `C#CCN(C)Cc1cc2cc(OC)ccc2n1C` [(l), N-methyl-N-propargyl-2-(1-methyl-5-methoxy-indolyl)methylamine], in test [1], the ED50 is less than 6 mg/kg. For the same compound, the IC50 against Bovine Brain MAO A is 8.91 nM; against Bovine Brain MAO B it was 891 nM. Besides, the “Persistence of MAO A inhibitory effect” value in the test with rat cerebral MAO A (dose increased (5 mg/kg)) is reported as “observed even after 7 days”. Moreover, the “Onset of MAO A inhibitory effect” value with rat cerebral MAO A (single dose (1 mg/kg)) is recorded as “reached soon after the administration of a single dose”. The “Type of MAO inhibition (reversibility, selectivity)” value in the test with rat cerebral MAO A and B was “irreversible and selective inhibitor of MAO A”.
